In the assay the target is T1, GltPh (Pyrococcus horikoshii, UniProt O59010).
T1 construct: gene PH1295; WT GltPh, homotrimer, detergent-solubilised (DDM)
T1 sequence (O59010 1-425): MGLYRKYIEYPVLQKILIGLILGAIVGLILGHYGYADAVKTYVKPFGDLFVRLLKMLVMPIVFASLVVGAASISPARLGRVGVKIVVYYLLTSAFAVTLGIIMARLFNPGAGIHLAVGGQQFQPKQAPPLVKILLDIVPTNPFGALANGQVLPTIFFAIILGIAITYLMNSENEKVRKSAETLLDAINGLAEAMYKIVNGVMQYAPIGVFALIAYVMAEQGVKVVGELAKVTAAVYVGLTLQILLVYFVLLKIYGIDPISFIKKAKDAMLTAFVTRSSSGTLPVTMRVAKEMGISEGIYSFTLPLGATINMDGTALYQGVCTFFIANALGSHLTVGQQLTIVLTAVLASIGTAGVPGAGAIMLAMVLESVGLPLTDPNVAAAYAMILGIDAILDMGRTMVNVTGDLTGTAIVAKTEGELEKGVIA
Briefly: STD NMR titration, γ-protons; DDM micelles ([…] in proteoliposomes). It is filed as binding.

These results are taken from article PMC7536232, “Saturation transfer difference NMR on the integral trimeric membrane transport protein GltPh determines cooperative substrate binding” (Scientific Reports, 2020).

With `N[C@@H](CCC(=O)O)C(=O)O` [L-glutamate], binding was characterised by a dissociation constant (Kd) of 414 µM.
